Eight molecules from ChEMBL document CHEMBL1150567, “Three new phenolic compounds from a manipulated plant cell culture, Mirabilis jalapa” (J Nat Prod, 2001) can be followed below.

The structures appear in SMILES notation. Values after ≈ are worked out from the molar mass of the structure shown.

In assay [1] the test system is Candida albicans. Kind of assay: Antifungal activity against MDR knockout Candida albicans DSY1024 after 24 hrs by XTT assay. It is filed as functional, organism-based. The conditions noted are these: DSY1024, 24 h.
The subject of assay [2] is Candida albicans. Kind of assay: Antifungal activity against wild type Candida albicans SC5314 after 24 hrs by XTT assay. Particulars: SC5314, 24 h. It is filed as functional, organism-based.

As for `COc1cc2c(c(O)c1C)C(=O)[C@@]1(O)c3cccc(O)c3O[C@@H](OC)[C@@H]1O2`, the IC50 in the assay with Candida albicans [1] and with Candida albicans [2] was > 200 µg/mL each time.
Regarding `COc1ccccc1-c1coc2cc(O)c(C)c(O)c2c1=O`, the half-maximal inhibitory concentration (IC50) in the assay on Candida albicans [1] came out at 25 µg/mL (≈ 83.8 µM); in the assay with Candida albicans [2], 16 µg/mL (≈ 53.6 µM).
In the case of `COc1cc2oc3c(c(=O)c2c(O)c1C)-c1cccc(O)c1OC3O` (stereo unspecified) [9-O-METHYL-4-HYDROXYBOERAVINONE B], the IC50 in the assay with Candida albicans [1] was 48 µg/mL (≈ 140 µM); in the assay on Candida albicans [2], > 200 µg/mL.
With `C[C@@H]1[C@H](O)[C@@H](C)/C=C/C=C/C=C/C=C/C=C/C=C/C=C/[C@H](O[C@@H]2O[C@H](C)[C@@H](O)[C@H](N)[C@@H]2O)C[C@@H]2O[C@](O)(C[C@@H](O)C[C@@H](O)[C@H](O)CC[C@@H](O)C[C@@H](O)CC(=O)O[C@H]1C)C[C@H](O)[C@H]2C(=O)O` [AMPHOTERICIN B], the IC50 was 0.19 µg/mL (≈ 0.206 µM) in the assay with Candida albicans [1] and 0.15 µg/mL (≈ 0.162 µM) with Candida albicans [2].
On the same counts, the results for `COc1ccc(-c2coc3cc(O)cc(O)c3c2=O)cc1` [BIOCHANIN] are > 100 µg/mL and > 100 µg/mL.
For the molecule `O=c1c(-c2ccc(O)cc2)coc2cc(O)ccc12` [DAIDZEIN], the IC50 in the assay with Candida albicans [1] and with Candida albicans [2] was > 100 µg/mL in each case.
As to `OC(Cn1cncn1)(Cn1cncn1)c1ccc(F)cc1F` [FLUCONAZOLE], the IC50 with Candida albicans [1] came out at 6.7 µg/mL (≈ 21.9 µM); in the assay with Candida albicans [2], 0.18 µg/mL (≈ 0.588 µM).
As to `O=c1c(-c2ccc(O)cc2)coc2cc(O)cc(O)c12` [GENISTEIN], the IC50 in the assay with Candida albicans [1] and with Candida albicans [2] was > 100 µg/mL each time.
